{
  "source": "patent US20100160370A1",
  "about": "“METHOD OF TREATMENT AND PHARMACEUTICAL COMPOSITIONS” (Gilead Sciences, Inc., priority 2008, published 2010)",
  "type_in_all_cases": "in vivo",
  "key": {"[1]": {"tested_on": "bleomycin rat model", "test": "Bleomycin rat model: white blood cell counts in lung lavage", "settings": "for Lymphocyte Count (Average) / Macrophage Count (Average) / Neutrophil Count (Average) / Total Cell Count (Average): oral gavage twice a day, lung lavage", "excerpt": "The bleomycin rat model was used in this study to evaluate (R)-N-((2S,3S)-2-(fluoromethyl)-2-hydroxy-5-oxo-tetrahydrofuran-3-yl)-5-isopropyl-3-(isoquinolin-1-yl)-4,5-dihydroisoxazole-5-carboxamide as a possible therapeutic drug for the treatment of idiopathic pulmonary fibrosis (IPF) and other fibrotic lung diseases. The bleomycin animal model of IPF is an art-recognized model for evaluating potentially therapeutic drugs for the treatment of IPF (see, e.g., F. Chua et al., Pulmonary Fibrosis, Searching for Model Answers, Am. J. Respir. Cell. Mol. Biol., 33:9-13 (2005); A. Moeller et al., The bleomycin animal model: A useful tool to investigate treatment options for idiopathic pulmonary fibrosis, International Journal of Biochemistry and Cell Biology, 40: 362-382 (2008)). In this Example, (R)-N-((2S,3S)-2-(fluoromethyl)-2-hydroxy-5-oxo-tetrahydrofuran-3-yl)-5-isopropyl-3-(isoquinolin-1-yl)-4,5-dihydroisoxazole-5-carboxamide is referred to as the “test compound” for ease of reference. […] The abbreviations used in Table 1 are Bleo (bleomycin), IT (intratracheal), mg/kg (milligram per kilogram), N (number) and n/a (not applicable). [table] The rats receiving the test compound were gavaged twice a day from day zero (the day of bleomycin administration) through the day prior to necropsy. On days 14 and 28 the designated rats were euthanized with a pentobarbital-based solution, the chest cavity was opened and examined for gross pathology. The right lung was removed, canulated, and lavaged for determination of white blood cell counts. The lavaged tissue was flash frozen and analyzed for collagen content by measuring the amount of collagen. The left lung was fixed for histopathology. Homogenates from the lungs were analyzed for cytokines. Intratracheal administration of bleomycin induces a two-stage response in the lungs of rats. The first stage is an inflammatory response which peaks at about 14 days after bleomycin administration, and the second stage is a fibrotic response that is apparent by 28 days after bleomycin administration. The inflammation markers that were measured in this study were the influx of leukocytes (neutrophils, macrophages and lymphocytes) into the airways, and the induction of the cytokines MCP-1 and MCP-3 (where MCP stands for Monocyte Chemoattractant Protein). Tables 2, 3, 4 and 5 show the total cell count, neutrophil count, macrophage count and the lymphocyte count, respectively, from the treated rats at 14 days and 28 days (Values for cell numbers are ×10^6). The abbreviation SEM stands for Standard Error of the Mean. In Tables 2 thru 8 the t-test was an unpaired, two-tailed, t-test performed using a GraphPad Prism version 5.01 for Windows (GraphPad Software, San Diego, Calif. USA)."}, "[2]": {"tested_on": "MCP-1", "test": "Bleomycin rat model: MCP-1 level in bronchoalveolar lavage fluid (Luminex/Procarta cytokine assay)", "settings": "for MCP-1 concentration (Average): oral gavage twice a day, BAL", "excerpt": "(§1) The bleomycin rat model was used in this study to evaluate (R)-N-((2S,3S)-2-(fluoromethyl)-2-hydroxy-5-oxo-tetrahydrofuran-3-yl)-5-isopropyl-3-(isoquinolin-1-yl)-4,5-dihydroisoxazole-5-carboxamide as a possible therapeutic drug for the treatment of idiopathic pulmonary fibrosis (IPF) and other fibrotic lung diseases. The bleomycin animal model of IPF is an art-recognized model for evaluating potentially therapeutic drugs for the treatment of IPF (see, e.g., F. Chua et al., Pulmonary Fibrosis, Searching for Model Answers, Am. J. Respir. Cell. Mol. Biol., 33:9-13 (2005); A. Moeller et al., The bleomycin animal model: A useful tool to investigate treatment options for idiopathic pulmonary fibrosis, International Journal of Biochemistry and Cell Biology, 40: 362-382 (2008)).\n(§2) The rats receiving the test compound were gavaged twice a day from day zero (the day of bleomycin administration) through the day prior to necropsy. On days 14 and 28 the designated rats were euthanized with a pentobarbital-based solution, the chest cavity was opened and examined for gross pathology. The right lung was removed, canulated, and lavaged for determination of white blood cell counts. The lavaged tissue was flash frozen and analyzed for collagen content by measuring the amount of collagen. The left lung was fixed for histopathology. Homogenates from the lungs were analyzed for cytokines.\n(§3) Intratracheal administration of bleomycin induces a two-stage response in the lungs of rats. The first stage is an inflammatory response which peaks at about 14 days after bleomycin administration, and the second stage is a fibrotic response that is apparent by 28 days after bleomycin administration. The inflammation markers that were measured in this study were the influx of leukocytes (neutrophils, macrophages and lymphocytes) into the airways, and the induction of the cytokines MCP-1 and MCP-3 (where MCP stands for Monocyte Chemoattractant Protein). Tables 2, 3, 4 and 5 show the total cell count, neutrophil count, macrophage count and the lymphocyte count, respectively, from the treated rats at 14 days and 28 days (Values for cell numbers are ×10^6). The abbreviation SEM stands for Standard Error of the Mean. In Tables 2 thru 8 the t-test was an unpaired, two-tailed, t-test performed using a GraphPad Prism version 5.01 for Windows (GraphPad Software, San Diego, Calif. USA).\n(§4) Additionally, MCP-1 and MCP-3 levels in the rat Bronchoalveolar Lavage Fluid (BAL) were measured using Luminex xMap Technology CS1000 (Austin, Tex.) and a Procarta Cytokine Assay Kit (rat 15-plex) manufactured by Panomics, Inc. (Fremont, Calif.) that included analytes for: IL-1α, IL-1β, IL-6, TNFα, KC, MCP-1, MCP-3, MIP-1α, RANTES, VEGF, TGFb, IL-4, IL-10, IFNg, and GM-CSF. Three replicate assay wells (n=3) were analyzed for each experimental sample following the manufacturer's instructions. Quantitation of each analyte was determined against standard curves using MiraiBio's (Alameda, Calif.) Masterplex QT v 3.0 software. For all samples, background signals in the absence of BAL were determined and subtracted from signals obtained in the presence of BAL to obtain the net signal. Statistical significance of biological studies was tested with a two-tailed Student t-test. Tables 6 and 7 show the concentrations of cytokines MCP-1 and MCP-3, respectively, in the airways of the treated rats, expressed in pg/mL."}, "[3]": {"tested_on": "MCP-3", "test": "Bleomycin rat model: MCP-3 level in bronchoalveolar lavage fluid (Luminex/Procarta cytokine assay)", "settings": "for MCP-3 concentration (Average): oral gavage twice a day, BAL", "excerpt": "as §1, §2, §3, §4"}, "[4]": {"tested_on": "collagen", "test": "Bleomycin rat model: lung collagen deposition (pepsin digest, SDS-PAGE densitometry)", "set-up": "Collagen Response (Average collagen concentration): unit not given here", "settings": "for Collagen Response (Average collagen concentration): oral gavage twice a day, 28 day, lung tissue", "excerpt": "The bleomycin rat model was used in this study to evaluate (R)-N-((2S,3S)-2-(fluoromethyl)-2-hydroxy-5-oxo-tetrahydrofuran-3-yl)-5-isopropyl-3-(isoquinolin-1-yl)-4,5-dihydroisoxazole-5-carboxamide as a possible therapeutic drug for the treatment of idiopathic pulmonary fibrosis (IPF) and other fibrotic lung diseases. The bleomycin animal model of IPF is an art-recognized model for evaluating potentially therapeutic drugs for the treatment of IPF (see, e.g., F. Chua et al., Pulmonary Fibrosis, Searching for Model Answers, Am. J. Respir. Cell. Mol. Biol., 33:9-13 (2005); A. Moeller et al., The bleomycin animal model: A useful tool to investigate treatment options for idiopathic pulmonary fibrosis, International Journal of Biochemistry and Cell Biology, 40: 362-382 (2008)). The rats receiving the test compound were gavaged twice a day from day zero (the day of bleomycin administration) through the day prior to necropsy. On days 14 and 28 the designated rats were euthanized with a pentobarbital-based solution, the chest cavity was opened and examined for gross pathology. The right lung was removed, canulated, and lavaged for determination of white blood cell counts. The lavaged tissue was flash frozen and analyzed for collagen content by measuring the amount of collagen. The left lung was fixed for histopathology. Homogenates from the lungs were analyzed for cytokines. […] Gels were then stained with Coomassie Blue and stained bands migrating coincident with type I collagen standards were compared by densitometry to the Coomassie stained collagen standards in order to quantitate collagen content. Under the reducing conditions employed in the analysis, the quantitated lung sample gel bands represented the alpha 1 and 2 chains of type I collagen and the alpha 1 chain of type Ill collagen. Blots were scanned with a BioRad GS-800 Scanner and their density was quantitated using “Quantity One” computer software from BioRad. Results were averaged for each treatment group and expressed as micrograms of collagen/mg of lung tissue."}, "[5]": {"settings": "Bleomycin IT 3.5 mg/kg + 10 mg/Kg test compound, 14 day"}, "[6]": {"settings": "Bleomycin IT 3.5 mg/kg + 10 mg/Kg test compound, 28 day"}, "[7]": {"settings": "Bleomycin IT 3.5 mg/kg + 30 mg/Kg test compound, 14 day"}, "[8]": {"settings": "Bleomycin IT 3.5 mg/kg + 30 mg/Kg test compound, 28 day"}, "[9]": {"settings": "orally administered, bleomycin-treated rats, result in words"}, "[10]": {"settings": "bleomycin-treated rats, result in words"}},
  "data": [
    {"smiles": "CC(C)[C@@]1(C(=O)N[C@H]2CC(=O)O[C@]2(O)CF)CC(c2nccc3ccccc23)=NO1", "note": "[Test Compound, (R)-N-((2S,3S)-2-(fluoromethyl)-2-hydroxy-5-oxo-tetrahydrofuran-3-yl)-5-isopropyl-3-(isoquinolin-1-yl)-4,5-dihydroisoxazole-5-carboxamide]", "values": [
      {"measurement": "Lymphocyte Count (Average)", "setting": "[1]; [5]", "result": "0.002 ×10^6"},
      {"measurement": "Macrophage Count (Average)", "setting": "[1]; [5]", "result": "0.415 ×10^6"},
      {"measurement": "Neutrophil Count (Average)", "setting": "[1]; [5]", "result": "0.006 ×10^6"},
      {"measurement": "Total Cell Count (Average)", "setting": "[1]; [5]", "result": "1.988 ×10^6"},
      {"measurement": "Lymphocyte Count (Average)", "setting": "[1]; [6]", "result": "0.007 ×10^6"},
      {"measurement": "Macrophage Count (Average)", "setting": "[1]; [6]", "result": "0.442 ×10^6"},
      {"measurement": "Neutrophil Count (Average)", "setting": "[1]; [6]", "result": "0.012 ×10^6"},
      {"measurement": "Total Cell Count (Average)", "setting": "[1]; [6]", "result": "2.276 ×10^6"},
      {"measurement": "Lymphocyte Count (Average)", "setting": "[1]; [7]", "result": "0.003 ×10^6"},
      {"measurement": "Macrophage Count (Average)", "setting": "[1]; [7]", "result": "0.285 ×10^6"},
      {"measurement": "Neutrophil Count (Average)", "setting": "[1]; [7]", "result": "0.005 ×10^6"},
      {"measurement": "Total Cell Count (Average)", "setting": "[1]; [7]", "result": "1.482 ×10^6"},
      {"measurement": "Lymphocyte Count (Average)", "setting": "[1]; [8]", "result": "0.004 ×10^6"},
      {"measurement": "Macrophage Count (Average)", "setting": "[1]; [8]", "result": "0.476 ×10^6"},
      {"measurement": "Neutrophil Count (Average)", "setting": "[1]; [8]", "result": "0.008 ×10^6"},
      {"measurement": "Total Cell Count (Average)", "setting": "[1]; [8]", "result": "2.207 ×10^6"},
      {"measurement": "influx of lymphocytes into the airways", "setting": "[1]; [9]", "result": "inhibited the influx"},
      {"measurement": "influx of macrophages into the airways", "setting": "[1]; [9]", "result": "inhibited the influx"},
      {"measurement": "influx of neutrophils into the airways", "setting": "[1]; [9]", "result": "inhibited the influx"},
      {"measurement": "MCP-1 concentration (Average)", "setting": "[2]; [5]", "result": 66.122, "unit": "pg/mL"},
      {"measurement": "MCP-1 concentration (Average)", "setting": "[2]; [6]", "result": 12.800, "unit": "pg/mL"},
      {"measurement": "MCP-1 concentration (Average)", "setting": "[2]; [7]", "result": 13.838, "unit": "pg/mL"},
      {"measurement": "MCP-1 concentration (Average)", "setting": "[2]; [8]", "result": 11.844, "unit": "pg/mL"},
      {"measurement": "production of MCP-1 in the lungs", "setting": "[2]; [10]", "result": "inhibited the production"},
      {"measurement": "MCP-3 concentration (Average)", "setting": "[3]; [5]", "result": 37.987, "unit": "pg/mL"},
      {"measurement": "MCP-3 concentration (Average)", "setting": "[3]; [6]", "result": 7.075, "unit": "pg/mL"},
      {"measurement": "MCP-3 concentration (Average)", "setting": "[3]; [7]", "result": 5.668, "unit": "pg/mL"},
      {"measurement": "MCP-3 concentration (Average)", "setting": "[3]; [8]", "result": 6.497, "unit": "pg/mL"},
      {"measurement": "production of MCP-3 in the lungs", "setting": "[3]; [10]", "result": "inhibited the production"},
      {"measurement": "Collagen Response (Average collagen concentration)", "setting": "[4]; Bleomycin IT 3.5 mg/kg + 10 mg/Kg test compound", "result": 2.353},
      {"measurement": "Collagen Response (Average collagen concentration)", "setting": "[4]; Bleomycin IT 3.5 mg/kg + 30 mg/Kg test compound", "result": 3.891},
      {"measurement": "deposition of collagen during the fibrotic phase of the bleomycin response", "setting": "[4]; [9]", "result": "inhibited the deposition of collagen"}
    ]}
  ]
}
